pIC50: −log10 of the molar value.
Key:
[1] = biological target: T1, Bone morphogenetic protein 1 (Homo sapiens, UniProt P13497); test: Inhibition of C-terminal FLAG-6x-His epitope tagged and N-terminal human RAGE signal sequence tagged human BMP1 (23 to 721 amino acids) expressed in CHO-E1 cells pre-incubated for 10 mins before promyostatin peptide substrate addition and measured after 60 mins using 0.5 nM BMP1 by FRET based assay; format: cell-based
T1 sequence (P13497 whole entry): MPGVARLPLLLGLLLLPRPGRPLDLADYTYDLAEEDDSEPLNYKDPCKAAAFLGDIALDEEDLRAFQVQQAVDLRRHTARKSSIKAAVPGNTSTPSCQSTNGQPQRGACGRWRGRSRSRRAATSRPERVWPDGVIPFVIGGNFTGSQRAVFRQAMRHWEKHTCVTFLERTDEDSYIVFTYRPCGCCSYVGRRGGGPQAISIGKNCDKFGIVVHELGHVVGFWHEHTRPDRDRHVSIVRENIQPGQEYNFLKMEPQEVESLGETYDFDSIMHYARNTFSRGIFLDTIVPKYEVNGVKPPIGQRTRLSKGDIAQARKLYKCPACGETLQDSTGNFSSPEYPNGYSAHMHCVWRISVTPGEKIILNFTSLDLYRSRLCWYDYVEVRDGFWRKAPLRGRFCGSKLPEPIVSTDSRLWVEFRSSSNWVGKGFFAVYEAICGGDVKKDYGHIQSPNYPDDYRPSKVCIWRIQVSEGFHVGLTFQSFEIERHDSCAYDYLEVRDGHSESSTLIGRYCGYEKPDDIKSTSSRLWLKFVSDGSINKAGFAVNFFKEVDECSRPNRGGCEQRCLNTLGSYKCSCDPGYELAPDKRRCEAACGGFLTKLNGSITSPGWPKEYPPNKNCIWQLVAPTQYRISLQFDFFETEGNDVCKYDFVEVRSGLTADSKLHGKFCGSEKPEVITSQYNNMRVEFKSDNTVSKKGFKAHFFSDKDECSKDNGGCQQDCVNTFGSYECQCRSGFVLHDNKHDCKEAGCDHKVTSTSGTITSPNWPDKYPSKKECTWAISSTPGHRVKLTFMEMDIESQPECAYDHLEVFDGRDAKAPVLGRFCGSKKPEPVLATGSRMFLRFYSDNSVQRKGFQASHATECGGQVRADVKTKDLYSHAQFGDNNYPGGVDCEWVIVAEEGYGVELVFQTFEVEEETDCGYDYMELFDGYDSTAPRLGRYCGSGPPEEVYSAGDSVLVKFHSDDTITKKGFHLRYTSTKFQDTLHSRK

[2] = biological target: T1, Bone morphogenetic protein 1; test: Inhibition of C-terminal FLAG-6x-His epitope tagged and N-terminal human RAGE signal sequence tagged human BMP1 (23 to 721 amino acids) expressed in CHO-E1 cells pre-incubated for 10 mins before promyostatin peptide substrate addition and measured after 30 mins using 50 nM BMP1 by FRET based assay; format: cell-based
[3] = biological target: Tolloid-like protein 1 (Homo sapiens, UniProt O43897, I156V/N221S/V284A); test: Inhibition of recombinant human TLL1 I156V/N221S/V284A mutant expressed in CHOE1A cells pre-incubated for 10 mins before promyostatin peptide substrate addition and measured after 60 mins by FRET based assay; format: cell-based
Tolloid-like protein 1, sequence (O43897 148-1013 I156V/N221S/V284A limits assumed): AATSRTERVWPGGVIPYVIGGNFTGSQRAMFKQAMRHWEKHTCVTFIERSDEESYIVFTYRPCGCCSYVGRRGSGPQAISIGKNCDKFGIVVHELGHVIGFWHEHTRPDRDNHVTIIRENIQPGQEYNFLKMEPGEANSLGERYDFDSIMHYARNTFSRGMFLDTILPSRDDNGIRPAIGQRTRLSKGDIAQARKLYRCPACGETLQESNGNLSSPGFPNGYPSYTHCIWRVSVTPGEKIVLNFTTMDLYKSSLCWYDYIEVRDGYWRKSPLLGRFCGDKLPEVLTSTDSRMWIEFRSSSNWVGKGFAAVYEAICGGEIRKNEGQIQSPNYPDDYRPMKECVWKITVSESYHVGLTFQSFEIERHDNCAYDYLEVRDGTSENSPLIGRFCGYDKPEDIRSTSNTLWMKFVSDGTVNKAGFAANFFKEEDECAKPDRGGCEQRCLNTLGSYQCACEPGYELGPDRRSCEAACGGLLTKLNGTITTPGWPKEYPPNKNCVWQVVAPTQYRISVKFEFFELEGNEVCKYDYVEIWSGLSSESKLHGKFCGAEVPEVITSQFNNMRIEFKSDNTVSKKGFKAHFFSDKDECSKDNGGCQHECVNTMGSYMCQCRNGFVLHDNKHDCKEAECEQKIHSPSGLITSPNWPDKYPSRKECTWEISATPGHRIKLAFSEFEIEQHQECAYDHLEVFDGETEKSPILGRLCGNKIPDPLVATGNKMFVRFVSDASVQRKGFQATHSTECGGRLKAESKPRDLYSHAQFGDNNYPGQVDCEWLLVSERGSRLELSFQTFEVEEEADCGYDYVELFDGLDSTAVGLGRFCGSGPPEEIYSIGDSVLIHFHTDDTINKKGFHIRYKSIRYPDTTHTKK

[4] = biological target: T2, Tolloid-like protein 2 (Homo sapiens, UniProt Q9Y6L7); test: Inhibition of C-terminal Avi-6x-His epitope tagged and N-terminal human RAGE signal sequence tagged recombinant human TLL2 (26 to 1015 amino acids) expressed in CHOE1A cells incubated for 60 mins with promyostatin peptide substrate by FRET based assay; format: cell-based
T2 sequence (Q9Y6L7 whole entry): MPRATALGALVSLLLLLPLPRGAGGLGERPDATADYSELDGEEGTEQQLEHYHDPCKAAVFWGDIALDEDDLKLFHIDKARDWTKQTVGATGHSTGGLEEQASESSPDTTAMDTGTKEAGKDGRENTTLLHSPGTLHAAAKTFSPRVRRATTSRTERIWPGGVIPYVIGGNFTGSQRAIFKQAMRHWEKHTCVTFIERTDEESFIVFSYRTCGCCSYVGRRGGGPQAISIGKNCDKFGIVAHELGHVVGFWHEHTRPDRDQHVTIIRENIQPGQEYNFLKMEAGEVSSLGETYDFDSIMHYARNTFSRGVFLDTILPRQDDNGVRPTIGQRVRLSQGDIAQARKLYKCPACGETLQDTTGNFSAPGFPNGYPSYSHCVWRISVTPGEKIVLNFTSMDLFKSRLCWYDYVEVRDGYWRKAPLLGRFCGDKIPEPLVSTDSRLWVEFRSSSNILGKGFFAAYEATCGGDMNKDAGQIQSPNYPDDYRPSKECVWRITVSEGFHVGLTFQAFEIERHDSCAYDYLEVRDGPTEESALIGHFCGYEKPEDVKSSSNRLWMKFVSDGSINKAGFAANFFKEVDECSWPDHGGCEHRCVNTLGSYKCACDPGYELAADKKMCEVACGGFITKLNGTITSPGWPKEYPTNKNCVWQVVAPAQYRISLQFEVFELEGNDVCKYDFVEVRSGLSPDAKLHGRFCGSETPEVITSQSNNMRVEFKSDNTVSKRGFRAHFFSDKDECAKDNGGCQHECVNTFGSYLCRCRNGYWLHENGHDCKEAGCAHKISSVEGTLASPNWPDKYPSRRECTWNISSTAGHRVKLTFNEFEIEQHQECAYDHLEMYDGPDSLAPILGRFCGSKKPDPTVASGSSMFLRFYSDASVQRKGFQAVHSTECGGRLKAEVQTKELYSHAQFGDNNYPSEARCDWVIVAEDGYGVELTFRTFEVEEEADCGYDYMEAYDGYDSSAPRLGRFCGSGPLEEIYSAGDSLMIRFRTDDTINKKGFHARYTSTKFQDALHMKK

[5] = Reduction in PICP levels in human cardiac fibroblasts incubated for 24 to 48 hrs by ELISA; format: functional
How it was run: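 Human cardiac fibroblasts no older than passage 6 were seeded at 10,000 to 15,000 cells per well in 96-well plates and, one day later, exposed for 24 to 48 hr at 37° C to treatment in ficoll crowding EMEM with 100 μM ascorbic acid and less than 0.3% DMSO. IC50 was determined in GraphPad Prism from a log(inhibitor)-response fit of procollagen I C-terminal propeptide levels in the medium, measured by Quidel ELISA and expressed relative to untreated controls.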

[6] = Reduction in mature collagen deposition levels in human cardiac fibroblasts incubated for 24 to 48 hrs by immunostaining based assay; format: functional
How it was run: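 Methanol fixation at −20° C for 10 min followed a 24 to 48 hr treatment at 37° C of human cardiac fibroblasts in 96-well plates, in ficoll crowding EMEM with 100 μM ascorbic acid and DMSO under 0.3%. Imaging on an Operetta system captured anti-mature collagen I staining, detected with an Alexa647 secondary antibody, alongside Hoechst-stained nuclei. In GraphPad Prism, an IC50 was fitted to collagen intensity normalised to nuclei count per field.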

Structure (SMILES)	pIC50 [1]	pIC50 [2]	pIC50 [3]	pIC50 [4]	pIC50 [5]	pIC50 [6]
CCCCC[C@H](CN(O)C=O)C(=O)NCNC(=O)c1ccc(-c2ccccc2)o1	> 6.90	> 6.70	> 6.40	> 6.10	> 5.40	> 6.00
CCCCC[C@@H](C(=O)NCNC(=O)c1ccc(-c2cc(OCC)cc(C(=O)O)c2)o1)[C@@H](CC)N(O)C=O	> 6.90	> 6.70	> 6.40	> 6.10	> 5.40	> 6.00
CCCCC[C@@H](C(=O)NCNC(=O)c1ccc(-c2ccc(P(=O)(O)O)c(OCC)c2)o1)[C@@H](CC)N(O)C=O	> 6.90	> 6.70	> 6.40	> 6.10	> 5.40	> 6.00
CCCCC[C@@H](C(=O)NCNC(=O)c1ccc(-c2ccccc2)o1)[C@@H](CC)N(O)C=O	> 6.90	> 6.70	> 6.40	> 6.10	> 5.40	> 6.00
CCCCC[C@@H](C(=O)NCNC(=O)c1ccc(-c2ccc(C(=O)N[C@@H](CC(=O)O)C(=O)O)c(OCC)c2)o1)[C@@H](CC)N(O)C=O	> 6.90	> 6.70	> 6.40	> 6.10	> 5.40	> 6.00
CCCCC[C@@H](C(=O)NCNC(=O)c1ccc(-c2cc(OCC)cc(P(=O)(O)O)c2)o1)[C@@H](CC)N(O)C=O	> 6.90	> 6.70	> 6.40	> 6.10	> 5.40	> 6.00
CCCCC[C@@H](C(=O)NCNC(=O)c1ccc(-c2cc(OCC)cc(C(=O)N[C@@H](CC(=O)O)C(=O)O)c2)o1)[C@@H](CC)N(O)C=O	> 6.90	> 6.70	> 6.40	> 6.10	> 5.40	> 6.00
CCCCC[C@@H](C(=O)NCNC(=O)c1ccc(-c2ccc(C(=O)O)c(O)c2)o1)[C@@H](CC)N(O)C=O	> 6.90	> 6.70	> 6.40	> 6.10	> 5.40	–
CCCCC[C@@H](C(=O)NCNC(=O)c1ccc(-c2cc(CP(=O)(O)O)cc(OCC)c2)o1)[C@@H](CC)N(O)C=O	> 6.90	> 6.70	> 6.40	> 6.10	> 5.40	> 6.00
CCCCC[C@@H](C(=O)NCNC(=O)c1ccc(-c2ccc(CC(=O)N[C@@H](CC(=O)O)C(=O)O)c(OCC)c2)o1)[C@@H](CC)N(O)C=O	> 6.90	> 6.70	> 6.40	> 6.10	> 5.40	> 6.00
CCCCC[C@@H](C(=O)NCNC(=O)c1ccc(-c2cc(OCC)c(F)c(C(=O)O)c2)o1)[C@@H](CC)N(O)C=O	> 6.90	> 6.70	> 6.40	> 6.10	> 5.40	> 6.00
CCCCC[C@@H](C(=O)NCNC(=O)c1ccc(-c2cc(OCC)cc(C(=O)N[C@@H](CCC(=O)O)C(=O)O)c2)o1)[C@@H](CC)N(O)C=O	> 6.90	> 6.70	> 6.40	> 6.10	> 5.40	> 6.00
CCCCC[C@@H](C(=O)NCNC(=O)c1ccc(-c2cc(OCC)cc(C(=O)N[C@@H](CC(=O)O)C(=O)OC(C)(C)C)c2)o1)[C@@H](CC)N(O)C=O	> 6.90	> 6.70	> 6.40	> 6.10	> 5.40	> 6.00
CCCCC[C@@H](C(=O)NCNC(=O)c1ccc(-c2ccc(C(=O)NCP(=O)(O)O)c(O)c2)o1)[C@@H](CC)N(O)C=O	> 6.90	> 6.70	> 6.40	> 6.10	> 5.40	–
CCCCC[C@@H](C(=O)NCNC(=O)c1ccc(-c2ccc(C(=O)NCP(=O)(O)O)cc2)o1)[C@@H](CC)N(O)C=O	> 6.90	> 6.70	> 6.40	> 6.10	> 5.40	–
CCCCC[C@@H](C(=O)NCNC(=O)c1ccc(-c2cc(OCC(=O)O)cc(P(=O)(O)O)c2)o1)[C@@H](CC)N(O)C=O	> 6.90	> 6.70	> 6.40	> 6.10	> 5.40	–
CCOc1cc(-c2ccc(C(=O)NCNC(=O)[C@H](CCc3ccccc3)[C@@H](CC)N(O)C=O)o2)cc(P(=O)(O)O)c1	> 6.90	> 6.70	> 6.40	> 6.10	> 5.40	–
CCCCC[C@@H](C(=O)NCNC(=O)c1ccc(-c2cccc(C3(C(=O)O)CC3)c2)o1)[C@@H](CC)N(O)C=O	> 6.90	> 6.70	> 6.40	> 6.10	> 5.40	> 6.00
CCCCC[C@@H](C(=O)NCNC(=O)c1ccc(-c2cc(OCC)cc(C(=O)O)c2O)o1)[C@@H](CC)N(O)C=O	> 6.90	> 6.70	> 6.40	> 6.10	> 5.40	> 6.00
CCCCC[C@@H](C(=O)NCNC(=O)c1ccc(-c2cc(OCCC)cc(C(=O)O)c2)o1)[C@@H](CC)N(O)C=O	> 6.90	> 6.70	> 6.40	> 6.10	> 5.40	> 6.00
CCCCC[C@@H](C(=O)NCNC(=O)c1ccc(-c2ccc(C(=O)NCP(=O)(O)O)c(C)c2)o1)[C@@H](CC)N(O)C=O	> 6.90	> 6.70	> 6.40	> 6.10	> 5.40	–
CCCCC[C@@H](C(=O)NCNC(=O)c1ccc(-c2ccc(C(=O)N(CC(=O)O)CC(=O)O)c(OCC)c2)o1)[C@@H](CC)N(O)C=O	> 6.90	> 6.70	> 6.40	> 6.10	> 5.40	> 6.00

Source: ChEMBL document CHEMBL4476867, “Hydroxy formamide derivatives and their use” (2016)
